Measurements published in the supplement of paper PMC13380429.

How the values were obtained:
Settings in all cases: 72 h
HepG2 [1] = test: drug sensitivity score (DSS) for viability; higher = more toxic; extreme values may be limits of the assay
Caco-2 [2] = test: as above
U2OS [3] = test: as above
Vero E6 [4] = test: as above
Calu-3 [5] = test: as above
HepG2 [6] = test: cell viability relative to DMSO; higher = less toxic
Caco-2 [7] = test: as above
U2OS [8] = test: as above
Vero E6 [9] = test: as above
Calu-3 [10] = test: as above
HepG2 [11] = test: relative viability EC50 (midpoint between 100% and the lowest measured viability); higher = less toxic
Caco-2 [12] = test: as above
U2OS [13] = test: as above
Vero E6 [14] = test: as above
Calu-3 [15] = test: as above

Structure (SMILES) | drug sensitivity score (HepG2 [1]) | drug sensitivity score (Caco-2 [2]) | drug sensitivity score (U2OS [3]) | drug sensitivity score (Vero E6 [4]) | drug sensitivity score (Calu-3 [5]) | cell viability (HepG2 [6]; 1 nM) | cell viability (HepG2 [6]; 10 nM) | cell viability (HepG2 [6]; 100 nM) | cell viability (HepG2 [6]; 1000 nM) | cell viability (HepG2 [6]; 10000 nM) | cell viability (Caco-2 [7]; 1 nM) | cell viability (Caco-2 [7]; 10 nM) | cell viability (Caco-2 [7]; 100 nM) | cell viability (Caco-2 [7]; 1000 nM) | cell viability (Caco-2 [7]; 10000 nM) | cell viability (U2OS [8]; 1 nM) | cell viability (U2OS [8]; 10 nM) | cell viability (U2OS [8]; 100 nM) | cell viability (U2OS [8]; 1000 nM) | cell viability (U2OS [8]; 10000 nM) | cell viability (Vero E6 [9]; 1 nM) | cell viability (Vero E6 [9]; 10 nM) | cell viability (Vero E6 [9]; 100 nM) | cell viability (Vero E6 [9]; 1000 nM) | cell viability (Vero E6 [9]; 10000 nM) | cell viability (Calu-3 [10]; 1 nM) | cell viability (Calu-3 [10]; 10 nM) | cell viability (Calu-3 [10]; 100 nM) | cell viability (Calu-3 [10]; 1000 nM) | cell viability (Calu-3 [10]; 10000 nM) | relative viability EC50 (HepG2 [11]) | relative viability EC50 (Caco-2 [12]) | relative viability EC50 (U2OS [13]) | relative viability EC50 (Vero E6 [14]) | relative viability EC50 (Calu-3 [15])
Nc1nc(=O)n([C@H]2C[C@H](O)[C@@H](CO)O2)cc1Cl [cytochlor] | 1.7 | 0.5 | 0 | 0 | 0.4 | 114% | 105% | 113% | 93.5% | 76.5% | 90% | 97.6% | 77.4% | 101% | 84.6% | 97.7% | 100% | 94.4% | 100% | 92.5% | 100% | 98.5% | 98.8% | 98.3% | 98.7% | 91.6% | 98.1% | 102% | 95.7% | 86.3% | > 10 µM | > 10 µM | > 10 µM | > 10 µM | > 10 µM
O=C(O)Cc1ccc(CCNS(=O)(=O)c2ccc(Cl)cc2)cc1 [daltroban] | 0 | 0 | 0 | 0 | 0 | 95% | 90.9% | 99.8% | 104% | 95.7% | 104% | 104% | 94.2% | 94.1% | 94.7% | 102% | 95.3% | 99.2% | 96.1% | 99.9% | 109% | 98.4% | 109% | 107% | 89.5% | 101% | 95.3% | 102% | 116% | 105% | > 10 µM | > 10 µM | > 10 µM | > 10 µM | > 10 µM
COc1c(-c2ccc3cc(NS(C)(=O)=O)ccc3c2)cc(-n2ccc(=O)[nH]c2=O)cc1C(C)(C)C [dasabuvir] | 0 | 0 | 0 | 0 | 0 | 90.4% | 102% | 90.4% | 102% | 109% | 96.2% | 94.5% | 87.8% | 98.9% | 96.3% | 98.5% | 96.9% | 102% | 96.5% | 96.3% | 91.5% | 98.3% | 92.8% | 97% | 106% | 94% | 106% | 93.7% | 97.9% | 104% | > 10 µM | > 10 µM | > 10 µM | > 10 µM | > 10 µM
